In patent US20170037091A1, “STY PEPTIDES FOR INHIBITION OF ANGIOGENESIS” (RESEARCH DEVELOPMENT FOUNDATION, priority 2014, published 2017):

Legend:
[1] = tested on: CRL 1500 breast cancer cell line; assay: XTT cell proliferation assay, CRL 1500 breast cancer cells; format: cell-based, human
Protocol: (§1) A 26 amino acid sequence corresponding to a Ser-Thr-Tyr domain within RTEF-1 (FIG. 1), linked to a 10 amino acid cell importation signal (RMR) was synthesized (GenScript NJ). Human ocular melanoma cells (Mel 270, Mel 202), retinoblastoma cells (Y79; ATTC, MD), primate ocular endothelial retina/choroid ocular endothelial cells (RF/6A; ATCC, MD), human retinal pigment epithelial cells (ARPE19; ATCC, MD), and the CRL 1500 breast cancer cell line (ATCC, MD) were plated into 96 well plates and cultured for 24 h. […]
(§2) Cell proliferation was assessed at 72 h using a colorimetric XTT assay (Roche Diagnostics, Indianpolis, Conn., USA). Cell proliferation was expressed as a percentage and compared with untreated control cell growth (N=3).

[2] = tested on: primate ocular endothelial retina/choroid ocular endothelial cells (RF/6A); assay: XTT cell proliferation assay, RF/6A ocular endothelial cells; format: cell-based; conditions: 30 mg/100 mL, XTT at 72 h
Protocol: (§3) A 26 amino acid sequence corresponding to a Ser-Thr-Tyr domain within RTEF-1 (FIG. 1), linked to a 10 amino acid cell importation signal (RMR) was synthesized (GenScript NJ). Human ocular melanoma cells (Mel 270, Mel 202), retinoblastoma cells (Y79; ATTC, MD), primate ocular endothelial retina/choroid ocular endothelial cells (RF/6A; ATCC, MD), human retinal pigment epithelial cells (ARPE19; ATCC, MD), and the CRL 1500 breast cancer cell line (ATCC, MD) were plated into 96 well plates and cultured for 24 h. Recombinant STY-RMR peptide was added to the cell culture media at various concentrations (10 to 30 mg/100 mL).
as §2

[3] = tested on: human retinal pigment epithelial cells (ARPE19); assay: XTT cell proliferation assay, ARPE-19 cells; format: cell-based; conditions: 30 mg/100 mL, XTT at 72 h
Protocol: as §3, §2

[4] = tested on: Human ocular melanoma cells (Mel 202); assay: XTT cell proliferation assay, Mel 202 ocular melanoma cells; format: cell-based; conditions: 30 mg/100 mL, XTT at 72 h, N=3
Protocol: as §3, §2

[5] = tested on: Human ocular melanoma cells (Mel 270); assay: XTT cell proliferation assay, Mel 270 ocular melanoma cells; format: cell-based; conditions: 30 mg/100 mL, XTT at 72 h
Protocol: as §3, §2

[6] = tested on: secreted VEGF, breast cancer cells (CRL 1500); assay: VEGF ELISA of culture media, CRL 1500 breast cancer cells; format: cell-based, human; conditions: 0.1 μg/100 μL, three days
Protocol: as §1
(§4) The amount of VEGF within the media was determined by VEGF ELISA (R&D Systems, MN, USA) and compared between STY-RMR treated and controls (N=3).

[7] = tested on: secreted VEGF, ocular melanoma cell line 270; assay: VEGF ELISA of culture media, Mel 270 cells; format: cell-based, human; conditions: 30 mg/100 mL, three days
Protocol: as §3, §4

[8] = tested on: secreted VEGF, ocular retinal-choroidal derived vascular endothelial cells (RF/6A); assay: VEGF ELISA of culture media, RF/6A cells; format: cell-based, primate; conditions: 30 mg/100 mL, three days
Protocol: as §3, §4

[9] = tested on: secreted VEGF, ARPE19 cells; assay: VEGF ELISA of culture media, ARPE19 cells; format: cell-based, human; conditions: 30 mg/100 mL, three days
Protocol: as §3, §4

[10] = tested on: secreted VEGF in the media of all tested cell lines; assay: VEGF ELISA of culture media, all tested cell lines (summary statement); format: cell-based; conditions: all tested cell lines exposed to STY-RMR
Protocol: as §3, §4

“STY-RMR: 26 amino acid STY domain of RTEF-1 linked to 10 amino acid RMR cell importation signal; 36 amino acids (SEQ ID NO:2) (SSFYGVSSQYESPENMIITCSTKVCSRMRRMRRMRR)” was tested, and the “inhibition of breast cancer cell (CRL 1500) proliferation” value (“inhibition of breast cancer cell” below) ([1]; 0.1 μg/100 μL twice a day for three days) was 9%, the “inhibition of breast cancer cell” value ([1]; 0.2 μg/100 μL twice a day for three days) was 27% and the “inhibition of breast cancer cell” value ([1]; 0.5 μg/100 μL twice a day for three days) was 27%. For the same substance, the “inhibition of breast cancer cell” value ([1]; 1 μg/100 μL twice a day for three days) was 27%, the “inhibition of breast cancer cell” value ([1]; 5 μg/100 μL twice a day for three days) was 50% and the “inhibition of breast cancer cell” value ([1]; 6 μg/100 μL twice a day for three days) was 50%. For the same substance, the “inhibition of RF/6A ocular endothelial cell proliferation” value [2] was 42%, the “inhibition of ARPE-19 retinal pigment epithelial cell proliferation” value [3] was 75% and the “inhibition of Mel 202 ocular melanoma cell proliferation” value [4] was 87%. The “inhibition of Mel270 ocular melanoma cell proliferation below control” value [5] was 60%, the “decrease of VEGF levels in breast tumor cells (ELISA)” value [6] was 78% and the “reduction in secreted VEGF levels, ocular melanoma cell line 270 (ELISA)” value [7] was 81%. The “reduction of secreted VEGF, RF/6A ocular vascular endothelial cells (ELISA)” value [8] was 80%, the “reduction of VEGF levels compared to control, ARPE19 cells (ELISA)” value [9] was 88% and the “secreted VEGF in the media, result in words” value [10] was “decreased”.
